# Test results taken from patent US12611438B2, “Antiviral composition comprising a nucleolin-binding peptide” (ANYGEN CO., LTD., priority 2021, dated 2026).
# Key:
# SARS-COV-2 = conditions: 24 h
# [1] = MTT cytotoxicity assay, Vero cells; conditions: African green monkey
smiles,measurement,setting,value
CC[C@H](C)[C@H](NC(=O)[C@H](CCCNC(=N)N)NC(=O)[C@H](CC(C)C)NC(=O)[C@@H](NC(=O)[C@H](CCCNC(=N)N)NC(=O)[C@H](CCSC)NC(=O)[C@@H](NC(=O)[C@@H](N)CCCNC(=N)N)[C@@H](C)CC)[C@@H](C)CC)C(=O)N[C@@H](CC(C)C)C(=O)N[C@@H](CCCCN)C(=O)N[C@@H](CC(C)C)C(=O)N[C@@H](C)C(=O)N[C@@H](CCCNC(=N)N)C(=O)NCCCC[C@H](NC(=O)[C@H](CCCNC(=N)N)NC(=O)[C@H](C)NC(=O)[C@H](CC(C)C)NC(=O)[C@H](CCCCN)NC(=O)[C@H](CC(C)C)NC(=O)[C@@H](NC(=O)[C@H](CCCNC(=N)N)NC(=O)[C@H](CC(C)C)NC(=O)[C@@H](NC(=O)[C@H](CCCNC(=N)N)NC(=O)[C@H](CCSC)NC(=O)[C@@H](NC(=O)[C@@H](N)CCCNC(=N)N)[C@@H](C)CC)[C@@H](C)CC)[C@@H](C)CC)C(=O)N[C@@H](CSSC[C@H](NC(=O)[C@H](CCCCNC(=O)CCOCCOCCOCCOCCOCCOCCNC(=O)[C@H](CCCCN)NC(=O)[C@H](CC(C)C)NC(=O)[C@H](Cc1ccc(O)cc1)NC(=O)[C@@H](NC(=O)[C@H](CCSC)NC(=O)[C@H](C)NC(=O)CNC(=O)[C@H](Cc1c[nH]cn1)NC(=O)[C@@H](N)CCCNC(=N)N)C(C)C)NC(=O)CCOCCOCCOCCOCCOCCOCCNC(=O)[C@H](CCCCN)NC(=O)[C@H](CC(C)C)NC(=O)[C@H](Cc1ccc(O)cc1)NC(=O)[C@@H](NC(=O)[C@H](CCSC)NC(=O)[C@H](C)NC(=O)CNC(=O)[C@H](Cc1c[nH]cn1)NC(=O)[C@@H](N)CCCNC(=N)N)C(C)C)C(=O)O)C(=O)O [AGM-330d-dCPP],IC50,SARS-COV-2,5.2 µM
same,CC50 at 24 h,[1],7.73 µM
